Among the data in EP4667458A1 (Kanaph Therapeutics Inc., priority 2023, dated 2024) are IC50 values, retold here.

Some results are limits rather than exact numbers.

Assay [1] deals with T1, SOS1 (Homo sapiens, UniProt Q07889).
T1 construct: adding equal amounts of HIS-SOS1cat (160 nM; Cytoskeleton, US); His; purchased Cytoskeleton, US
T1 sequence (Q07889 564-1049 limits assumed): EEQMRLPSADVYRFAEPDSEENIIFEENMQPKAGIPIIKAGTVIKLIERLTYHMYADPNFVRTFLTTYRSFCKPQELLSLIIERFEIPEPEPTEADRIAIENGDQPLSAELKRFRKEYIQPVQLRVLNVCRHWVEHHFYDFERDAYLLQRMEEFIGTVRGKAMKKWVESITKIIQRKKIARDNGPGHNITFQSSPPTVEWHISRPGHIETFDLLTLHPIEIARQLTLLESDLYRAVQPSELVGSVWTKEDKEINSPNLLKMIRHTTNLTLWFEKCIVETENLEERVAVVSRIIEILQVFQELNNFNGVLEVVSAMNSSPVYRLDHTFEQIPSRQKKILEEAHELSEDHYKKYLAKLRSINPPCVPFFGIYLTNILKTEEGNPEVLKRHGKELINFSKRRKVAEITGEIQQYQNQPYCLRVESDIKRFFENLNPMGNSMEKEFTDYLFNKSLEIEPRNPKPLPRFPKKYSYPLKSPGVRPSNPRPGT
In words: SOS-catalyzed nucleotide exchange assay (HTRF, SOS1-mediated GTP loading of KRAS G12D). The following applies: GST-KRAS G12D, HIS-SOS1cat, EDA-GTP-DY-647P1; compound 128 pM to 10 µM; read-out: SOS-catalyzed nucleotide exchange assay (IC50 range, Grade). It counts as biochemical. In a few lines: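 SOS1cat (HIS-tagged) preincubated 10 min at room temperature with compound (128 pM-10 µM), then GST-KRAS G12D with anti-GST terbium added; GTP loading tracked as HTRF with a DY-647P1 GTP analogue after 30 min, buffer HEPES pH 7.4. GEF-free wells for normalization; IC50 derived.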

For assay [2], the target named is T2, KRAS^G12C::SOS1 (Homo sapiens, UniProt Q07889).
T2 sequence (Q07889 1-1333): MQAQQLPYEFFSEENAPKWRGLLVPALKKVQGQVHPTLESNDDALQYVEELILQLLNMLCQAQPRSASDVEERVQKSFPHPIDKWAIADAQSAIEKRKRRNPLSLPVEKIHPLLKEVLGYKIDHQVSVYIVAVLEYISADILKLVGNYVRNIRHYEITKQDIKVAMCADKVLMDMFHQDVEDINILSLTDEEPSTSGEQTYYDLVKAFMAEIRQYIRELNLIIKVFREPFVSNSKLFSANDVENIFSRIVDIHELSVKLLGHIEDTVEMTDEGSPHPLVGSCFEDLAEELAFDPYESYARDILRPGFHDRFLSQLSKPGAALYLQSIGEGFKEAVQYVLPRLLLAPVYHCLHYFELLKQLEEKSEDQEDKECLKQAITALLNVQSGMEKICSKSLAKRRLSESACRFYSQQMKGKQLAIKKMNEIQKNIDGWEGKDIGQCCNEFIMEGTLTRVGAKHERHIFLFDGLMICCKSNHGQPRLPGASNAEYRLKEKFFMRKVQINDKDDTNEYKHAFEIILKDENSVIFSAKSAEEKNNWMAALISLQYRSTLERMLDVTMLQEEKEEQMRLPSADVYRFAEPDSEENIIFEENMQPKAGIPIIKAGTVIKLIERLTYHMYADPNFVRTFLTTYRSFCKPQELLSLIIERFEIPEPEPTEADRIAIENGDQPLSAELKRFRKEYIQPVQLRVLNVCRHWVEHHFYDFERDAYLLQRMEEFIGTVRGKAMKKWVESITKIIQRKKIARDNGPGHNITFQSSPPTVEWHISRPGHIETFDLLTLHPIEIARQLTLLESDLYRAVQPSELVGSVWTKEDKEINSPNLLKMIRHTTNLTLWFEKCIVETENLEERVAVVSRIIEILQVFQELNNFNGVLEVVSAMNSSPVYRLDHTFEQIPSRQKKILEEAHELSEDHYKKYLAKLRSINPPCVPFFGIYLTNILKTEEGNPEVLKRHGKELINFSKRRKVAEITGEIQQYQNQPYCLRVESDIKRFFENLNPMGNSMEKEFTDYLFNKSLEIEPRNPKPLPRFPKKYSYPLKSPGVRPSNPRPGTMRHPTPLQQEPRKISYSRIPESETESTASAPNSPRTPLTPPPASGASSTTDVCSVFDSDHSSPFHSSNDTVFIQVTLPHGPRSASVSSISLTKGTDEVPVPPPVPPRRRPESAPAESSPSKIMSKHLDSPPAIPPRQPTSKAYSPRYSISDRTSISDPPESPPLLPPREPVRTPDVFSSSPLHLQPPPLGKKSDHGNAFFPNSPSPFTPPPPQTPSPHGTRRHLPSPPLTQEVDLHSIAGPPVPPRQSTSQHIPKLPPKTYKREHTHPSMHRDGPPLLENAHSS
In words: KRAS G12C::SOS1 protein-protein interaction (PPI) inhibition assay (HTRF binding kit).

With `C[C@@H](NC(=O)c1ccc(=O)n(-c2cccc(-c3ccnn3C(F)F)c2)n1)c1cccc(C(F)(F)CO)c1F` [Example 150, N-[(1R)-1-[3-(1,1-difluoro-2-hydroxy-ethyl)-2-fluoro-phenyl]ethyl]-1-[3-[2-(difluoromethyl)pyrazol-3-yl]phenyl]-6-oxo-pyridazine-3-carboxamide], the 50% inhibitory concentration (IC50) in assay [1] and in assay [2] was less than 1 µM in each case.

As for `COc1ccc(-n2nc(C(=O)N[C@H](C)c3cccc(C(F)(F)CO)c3F)ccc2=O)c(OC)c1` [Example 151, N-[(1R)-1-[3-(1,1-difluoro-2-hydroxy-ethyl)-2-fluoro-phenyl]ethyl]-1-(2,4-dimethoxyphenyl)-6-oxo-pyridazine-3-carboxamide], the IC50 in assay [1] and in assay [2] was less than 1 µM in each case.

On to `COc1ccc(-n2nc(C(=O)N[C@H](C)c3cc(N)cc(C(F)(F)F)c3)ccc2=O)c(F)c1` [Example 152, N-[(1R)-1-[3-amino-5-(trifluoromethyl)phenyl]ethyl]-1-(2-fluoro-4-methoxy-phenyl)-6-oxo-pyridazine-3-carboxamide], for which the IC50 in assay [1] and in assay [2] was less than 1 µM throughout.

As for `COc1ccc(-n2nc(C(=O)N[C@H](C)c3cc(N)cc(C(F)(F)F)c3)ccc2=O)c(OC)c1` [Example 153, N-[(1R)-1-[3-amino-5-(trifluoromethyl)phenyl]ethyl]-1-(2,4-dimethoxyphenyl)-6-oxo-pyridazine-3-carboxamide], the IC50 in assay [1] and in assay [2] was less than 1 µM throughout.

For `C[C@@H](NC(=O)c1ccc(=O)n(-c2cccc3cc[nH]c23)n1)c1cc(N)cc(C(F)(F)F)c1` [Example 155, N-[(1R)-1-[3-amino-5-(trifluoromethyl)phenyl]ethyl]-1-(1H-indole-7-yl)-6-oxo-pyridazine-3-carboxamide], the results for the IC50 in assay [1] and in assay [2] were 1 to 10 µM and less than 1 µM, respectively.

Consider `C[C@@H](NC(=O)c1ccc(=O)n(-c2ccccc2CO)n1)c1cc(N)cc(C(F)(F)F)c1` [Example 156, N-[(1R)-1-[3-amino-5-(trifluoromethyl)phenyl]ethyl]-1-[2-(hydroxymethyl)phenyl]-6-oxo-pyridazine-3-carboxamide], for which the IC50 in assay [1] and in assay [2] was 1 to 10 µM throughout.

With `COCc1ccccc1-n1nc(C(=O)N[C@H](C)c2cc(N)cc(C(F)(F)F)c2)ccc1=O` [Example 157, N-[(1R)-1-[3-amino-5-(trifluoromethyl)phenyl]ethyl]-1-[2-(methoxymethyl)phenyl]-6-oxo-pyridazine-3-carboxamide], the IC50 in assay [1] and in assay [2] was 1 to 10 µM in each case.

Consider `C[C@@H](NC(=O)c1ccc(=O)n(-c2cccc(F)c2)n1)c1cc(N)cc(C(F)(F)F)c1` [Example 158, N-[(1R)-1-[3-amino-5-(trifluoromethyl)phenyl]ethyl]-1-(3-fluorophenyl)-6-oxo-pyridazine-3-carboxamide], for which the IC50 in assay [1] and in assay [2] was less than 1 µM each time.

As to `C[C@@H](NC(=O)c1ccc(=O)n(-c2cc(CO)ccc2F)n1)c1cc(N)cc(C(F)(F)F)c1` [Example 159, N-[(1R)-1-[3-amino-5-(trifluoromethyl)pheny 1]ethyl]-1-[2-fluoro-5-(hydroxymethyl)phenyl] -6-oxo-pyridazine-3-carboxamide], the IC50 in assay [1] and in assay [2] was less than 1 µM in each case.

For the compound `C[C@@H](NC(=O)c1ccc(=O)n(-c2cccc3[nH]ccc23)n1)c1cc(N)cc(C(F)(F)F)c1` [Example 160, N-[(1R)-1-[3-amino-5-(trifluoromethyl)phenyl]ethyl]-1-(1H-indol-4-yl)-6-oxo-pyridazine-3-carboxamide], the IC50 was 1 to 10 µM in assay [1] and less than 1 µM in assay [2].

On to `C[C@@H](NC(=O)c1ccc(=O)n(-c2cncc(-c3cnnn3C)c2)n1)c1cccc(C(F)F)c1F` [Example B02, N-[(1R)-1-[3-(difluoromethyl)-2-fluoro-phenyl]ethyl]-1-[5-(3-methyltriazol-4-yl)-3-pyridyl]-6-oxo-pyridazine-3-carboxamide], for which the IC50 in assay [1] and in assay [2] was less than 1 µM each time.

Regarding `Cc1cc(C(=O)N[C@H](C)c2cc(N)cc(C(F)(F)F)c2F)nn(-c2cncc(-c3cnnn3C)c2)c1=O` [Example B03, N-[(1R)-1-[5-amino-2-fluoro-3-(trifluoromethyl)phenyl]ethyl]-5-methyl-1-[5-(3-methyltriazol-4-yl)-3-pyridyl]-6-oxo-pyridazine-3-carboxamide], the IC50 in assay [1] and in assay [2] was less than 1 µM in each case.

Take `CCn1nncc1-c1cccc(-n2cc(C(=O)N[C@H](C)c3cccc(C(F)(F)F)c3F)ccc2=O)c1` [Example B04, N-[(R)-1-[2-fluoro-3-(trifluoromethyl)phenyl]ethyl]-1-[m-(1-ethyl-1H-1,2,3-triazol-5-yl)phenyl]-6-oxo-1,6-dihydronicotinamide]: the concentration for half-maximal inhibition (IC50) in assay [1] and in assay [2] was less than 1 µM in each case.

`Cc1c([C@@H](C)NC(=O)c2ccc(=O)n(-c3cncc(-c4ccnn4C)c3)n2)cc(N)cc1C(F)(F)F` [Example B05, N-[(1R)-1-[5-amino-2-methyl-3-(trifluoromethyl)phenyl]ethyl]-1-[5-(2-methylpyrazol-3-yl)-3-pyridyl]-6-oxo-pyridazine-3-carboxamide]: the IC50 in assay [1] and in assay [2] was less than 1 µM throughout.

As to `C[C@@H](NC(=O)c1ccc(=O)n(-c2ccc(F)c(-c3cnnn3C)c2)n1)c1cccc(C(F)(F)F)c1F` [Example B06, N-[(R)-1-[2-fluoro-3-(trifluoromethyl)phenyl]ethyl]-1-[4-fluoro-3-(1-methyl-1H-1,2,3-triazol-5-yl)phenyl]-6-oxo-1,6-dihydro-3-pyridazinecarboxamide], the IC50 in assay [1] and in assay [2] was less than 1 µM in each case.

Turning to `Cc1cc(C(=O)N[C@H](C)c2cc(N)cc(C(F)F)c2)nn(-c2cncc(-c3cnnn3C)c2)c1=O` [Example B07, N-[(1R)-1-[3-amino-5-(difluoromethyl)phenyl]ethyl]-5-methyl-1-[5-(3-methyltriazol-4-yl)-3-pyridyl]-6-oxo-pyridizine-3-carboxamide], the IC50 in assay [1] and in assay [2] was less than 1 µM each time.

On to `C[C@@H](NC(=O)c1ccc(=O)n(-c2cncc(-c3cnnn3C)c2)c1)c1cccc(C(F)(F)F)c1F` [Example B08, N-[(1R)-1-[2-fluoro-3-(trifluoromethyl)phenyl]ethyl]-1-[5-(3-methyltriazol-4-yl)-3-pyridyl]-6-oxo-pyridine-3-carboxamide], for which the IC50 in assay [1] and in assay [2] was less than 1 µM each time.

Take `C[C@@H](NC(=O)c1ccc(=O)n(-c2cncc(-c3cnnn3C)c2)n1)c1cccc(C(F)(F)CF)c1F` [Example B09, (R)-N-(1-(2-fluoro-3-(1,1,2-trifluoroethyl)phenyl)ethyl)-1-(5-(1-methyl-1H-1,2,3-triazol-5-yl)pyridin-3-yl)-6-oxo-1,6-dihydropyridazine-3-carboxamide]: the IC50 in assay [1] and in assay [2] was less than 1 µM in each case.
